Earlier results, collected in article PMC3433420 (PLoS ONE, 2012).
Read-outs that look alike come from different tables or passages of the source.

Molecular target: SH2 and PTB domains
Conditions: cited from earlier work
Text: Supplement pone.0044471.s022.xlsx, sheet "Most recent PM interactions" | column: Kd || Supplement pone.0044471.s022.xlsx, sheet "All original PM interactions" | column: Kd

[1] = protein ABL2, ref Jones et al. 2006 / Kaushansky et al. Mol Biosys 2008 / Kaushansky et al. Chem and Biol 2008
[2] = protein BLK, ref Jones et al. 2006 / Kaushansky et al. Mol Biosys 2008 / Kaushansky et al. Chem and Biol 2008
[3] = protein RASA1-N, ref Jones et al. 2006 / Kaushansky et al. Mol Biosys 2008 / Kaushansky et al. Chem and Biol 2008
[4] = protein SYK-NC, ref Jones et al. 2006 / Kaushansky et al. Mol Biosys 2008 / Kaushansky et al. Chem and Biol 2008
[5] = protein YES1, ref Jones et al. 2006 / Kaushansky et al. Mol Biosys 2008 / Kaushansky et al. Chem and Biol 2008
[6] = Protein ABL2, most recent PM interactions, ref Jones et al. 2006 / Kaushansky et al. Chem and Biol 2008
[7] = Protein SHC1-PTB, most recent PM interactions, ref Jones et al. 2006 / Kaushansky et al. Chem and Biol 2008
[8] = protein SHB, ref Jones et al. 2006 / Kaushansky et al. Mol Biosys 2008 / Kaushansky et al. Chem and Biol 2008

EEYEpYMNRRRRHd [ErbB3 pY1199, N-terminally rhodamine-labeled 13-mer phosphopeptide]
Kd (protein ABL2, ref Kaushansky et al. Chem and Biol 2008): 300 nM | Kd (protein BLK, ref Kaushansky et al. Chem and Biol 2008): 1810 nM | Kd (protein FGR, ref Kaushansky et al. Chem and Biol 2008): 1130 nM | Kd (protein PIK3R1-NC, ref Kaushansky et al. Chem and Biol 2008): 1510 nM | Kd (protein PIK3R2-N, ref Kaushansky et al. Chem and Biol 2008): 1350 nM | Kd (protein PIK3R3-N, ref Kaushansky et al. Chem and Biol 2008): 1380 nM | Kd (protein PIK3R3-NC, ref Kaushansky et al. Chem and Biol 2008): 1460 nM | Kd (protein RASA1-N, ref Kaushansky et al. Chem and Biol 2008): 310 nM | Kd (protein YES1, ref Kaushansky et al. Chem and Biol 2008): 590 nM | Kd (protein ZAP70-NC, ref Kaushansky et al. Chem and Biol 2008): 1470 nM

ELMTFGSKPpYDGIPASEd [ErbB1 915]
Kd (Protein ABL2, most recent PM interactions, ref Jones et al. 2006 / Kaushansky et al. Mol Biosys 2008 / Kaushansky et al. Chem and Biol 2008): 180 nM | Kd (Protein BLK, most recent PM interactions, ref Jones et al. 2006 / Kaushansky et al. Mol Biosys 2008 / Kaushansky et al. Chem and Biol 2008): 1180 nM | Kd (Protein RASA1-N, most recent PM interactions, ref Jones et al. 2006 / Kaushansky et al. Mol Biosys 2008 / Kaushansky et al. Chem and Biol 2008): 1410 nM | Kd (Protein SHB, most recent PM interactions, ref Jones et al. 2006 / Kaushansky et al. Mol Biosys 2008 / Kaushansky et al. Chem and Biol 2008): 1060 nM | Kd (Protein SYK-NC, most recent PM interactions, ref Jones et al. 2006 / Kaushansky et al. Mol Biosys 2008 / Kaushansky et al. Chem and Biol 2008): 1550 nM | Kd (Protein YES1, most recent PM interactions, ref Jones et al. 2006 / Kaushansky et al. Mol Biosys 2008 / Kaushansky et al. Chem and Biol 2008): 330 nM

ENAEpYLRVAPQSd [ErbB1 pY1197, N-terminally rhodamine-labeled 13-mer phosphopeptide]
Kd [1]: 210 nM | Kd [2]: 500 nM | Kd (protein CRK, ref Jones et al. 2006 / Kaushansky et al. Mol Biosys 2008 / Kaushansky et al. Chem and Biol 2008): 1070 nM | Kd (protein CRKL, ref Jones et al. 2006 / Kaushansky et al. Mol Biosys 2008 / Kaushansky et al. Chem and Biol 2008): 1340 nM | Kd (protein FGR, ref Jones et al. 2006 / Kaushansky et al. Mol Biosys 2008 / Kaushansky et al. Chem and Biol 2008): 620 nM | Kd (protein GRB2, ref Jones et al. 2006 / Kaushansky et al. Mol Biosys 2008 / Kaushansky et al. Chem and Biol 2008): 420 nM | Kd (protein ITK, ref Jones et al. 2006 / Kaushansky et al. Mol Biosys 2008 / Kaushansky et al. Chem and Biol 2008): 500 nM | Kd (protein LYN, ref Jones et al. 2006 / Kaushansky et al. Mol Biosys 2008 / Kaushansky et al. Chem and Biol 2008): 170 nM | Kd (protein PIK3R1-N, ref Jones et al. 2006 / Kaushansky et al. Mol Biosys 2008 / Kaushansky et al. Chem and Biol 2008): 500 nM | Kd (protein PIK3R1-NC, ref Jones et al. 2006 / Kaushansky et al. Mol Biosys 2008 / Kaushansky et al. Chem and Biol 2008): 500 nM | Kd (protein PIK3R2-N, ref Jones et al. 2006 / Kaushansky et al. Mol Biosys 2008 / Kaushansky et al. Chem and Biol 2008): 500 nM | Kd (protein PIK3R3-NC, ref Jones et al. 2006 / Kaushansky et al. Mol Biosys 2008 / Kaushansky et al. Chem and Biol 2008): 810 nM | Kd (protein PLCG2-NC, ref Jones et al. 2006 / Kaushansky et al. Mol Biosys 2008 / Kaushansky et al. Chem and Biol 2008): 500 nM | Kd [3]: 710 nM | Kd (protein RASA1-NC, ref Jones et al. 2006 / Kaushansky et al. Mol Biosys 2008 / Kaushansky et al. Chem and Biol 2008): 500 nM | Kd (protein SHC1-PTB, ref Jones et al. 2006 / Kaushansky et al. Mol Biosys 2008 / Kaushansky et al. Chem and Biol 2008): 340 nM | Kd (protein SHC1, ref Jones et al. 2006 / Kaushansky et al. Mol Biosys 2008 / Kaushansky et al. Chem and Biol 2008): 780 nM | Kd (protein SHC3, ref Jones et al. 2006 / Kaushansky et al. Mol Biosys 2008 / Kaushansky et al. Chem and Biol 2008): 1030 nM | Kd (protein SRC, ref Jones et al. 2006 / Kaushansky et al. Mol Biosys 2008 / Kaushansky et al. Chem and Biol 2008): 380 nM | Kd (protein SYK-N, ref Jones et al. 2006 / Kaushansky et al. Mol Biosys 2008 / Kaushansky et al. Chem and Biol 2008): 290 nM | Kd [4]: 380 nM | Kd (protein TEC, ref Jones et al. 2006 / Kaushansky et al. Mol Biosys 2008 / Kaushansky et al. Chem and Biol 2008): 480 nM | Kd [5]: 130 nM

ENPEpYLGLDVPVd [ErbB2 pY1248, N-terminally rhodamine-labeled 13-mer phosphopeptide]
Kd (Protein ABL2, original PM interactions, ref Jones et al. 2006 / Kaushansky et al. Chem and Biol 2008): 210 nM | Kd (Protein SHC1-PTB, original PM interactions, ref Jones et al. 2006 / Kaushansky et al. Chem and Biol 2008): 280 nM

ENPEpYLSEFSLKd [ErbB4 pY1284, N-terminally rhodamine-labeled 13-mer phosphopeptide]
Kd (protein ABL2, ref Jones et al. 2006): 220 nM | Kd (protein PIK3R2-NC, all original PM interactions, ref Jones et al. 2006): 2000 nM | Kd (protein PIK3R2-NC, ref Jones et al. 2006): 2000 nM | Kd (protein PIK3R3-NC, all original PM interactions, ref Jones et al. 2006): 2000 nM | Kd (protein PIK3R3-NC, ref Jones et al. 2006): 2000 nM | Kd (protein PLCG1-NC, all original PM interactions, ref Jones et al. 2006): 2000 nM | Kd (protein PLCG1-NC, ref Jones et al. 2006): 2000 nM | Kd (protein RASA1-N, ref Jones et al. 2006): 710 nM | Kd (protein SH2B3, all original PM interactions, ref Jones et al. 2006): 2000 nM | Kd (protein SH2B3, ref Jones et al. 2006): 2000 nM | Kd (protein SHC1-PTB, ref Jones et al. 2006): 24 nM | Kd (protein SLA2, all original PM interactions, ref Jones et al. 2006): 2000 nM | Kd (protein SLA2, ref Jones et al. 2006): 2000 nM | Kd (protein SYK-NC, ref Jones et al. 2006): 1670 nM | Kd (protein VAV2, all original PM interactions, ref Jones et al. 2006): 2000 nM | Kd (protein VAV2, ref Jones et al. 2006): 2000 nM

FGGAVENPEpYLTPQGGA [ErbB2 1196]
Kd [6]: 480 nM | Kd (Protein CRKL, most recent PM interactions, ref Jones et al. 2006 / Kaushansky et al. Chem and Biol 2008): 1440 nM | Kd (Protein FGR, most recent PM interactions, ref Jones et al. 2006 / Kaushansky et al. Chem and Biol 2008): 1680 nM | Kd (Protein GRB2, most recent PM interactions, ref Jones et al. 2006 / Kaushansky et al. Chem and Biol 2008): 1330 nM | Kd (Protein ITK, most recent PM interactions, ref Jones et al. 2006 / Kaushansky et al. Chem and Biol 2008): 770 nM | Kd (Protein NCK2, most recent PM interactions, ref Jones et al. 2006 / Kaushansky et al. Chem and Biol 2008): 1100 nM | Kd (Protein PIK3R1-NC, most recent PM interactions, ref Jones et al. 2006 / Kaushansky et al. Chem and Biol 2008): 230 nM | Kd (Protein PIK3R2-N, most recent PM interactions, ref Jones et al. 2006 / Kaushansky et al. Chem and Biol 2008): 1280 nM | Kd (Protein PIK3R3-N, most recent PM interactions, ref Jones et al. 2006 / Kaushansky et al. Chem and Biol 2008): 1390 nM | Kd (Protein PIK3R3-NC, most recent PM interactions, ref Jones et al. 2006 / Kaushansky et al. Chem and Biol 2008): 1340 nM | Kd (Protein PLCG2-NC, most recent PM interactions, ref Jones et al. 2006 / Kaushansky et al. Chem and Biol 2008): 1350 nM | Kd (Protein RASA1-N, most recent PM interactions, ref Jones et al. 2006 / Kaushansky et al. Chem and Biol 2008): 670 nM | Kd [7]: 350 nM | Kd (Protein SYK-C, most recent PM interactions, ref Jones et al. 2006 / Kaushansky et al. Chem and Biol 2008): 1240 nM | Kd (Protein SYK-NC, most recent PM interactions, ref Jones et al. 2006 / Kaushansky et al. Chem and Biol 2008): 1330 nM | Kd (Protein VAV1, most recent PM interactions, ref Jones et al. 2006 / Kaushansky et al. Chem and Biol 2008): 1250 nM | Kd (Protein VAV2, most recent PM interactions, ref Jones et al. 2006 / Kaushansky et al. Chem and Biol 2008): 230 nM | Kd (Protein VAV3, most recent PM interactions, ref Jones et al. 2006 / Kaushansky et al. Chem and Biol 2008): 600 nM | Kd (Protein YES1, most recent PM interactions, ref Jones et al. 2006 / Kaushansky et al. Chem and Biol 2008): 1190 nM

FLQRpYSSDPTGAd [ErbB1 pY1069, N-terminally rhodamine-labeled 13-mer phosphopeptide]
Kd [1]: 2000 nM | Kd [8]: 860 nM | Kd [5]: 300 nM

GSKPpYDGIPASEd [ErbB1 pY915, N-terminally rhodamine-labeled 13-mer phosphopeptide]
Kd [1]: 140 nM | Kd [2]: 1180 nM | Kd [3]: 1470 nM | Kd [8]: 1060 nM | Kd [4]: 1550 nM | Kd [5]: 330 nM

GTPTAENPEpYLGLDVPV [ErbB2 1248]
Kd [6]: 210 nM | Kd [7]: 280 nM
